According to patent publication US11547697B2, “Heterocyclic compounds and uses thereof” (MILLENNIUM PHARMACEUTICALS, INC., priority 2009, dated 2023):
Where two headings read alike, the source gives them in different places.

What was measured:
Assay type in all cases: biochemical
[1] = target: p110α/p85α (Homo sapiens (Human), UniProt P42336); experiment: PI 3-Kinase (human) HTRF assay, p110α/p85α
Method: (§1) An exemplary system is PI 3-Kinase (human) HTRF™ Assay from Upstate. […] Briefly, the assay is a time resolved FRET assay that indirectly measures PIP3 product formed by the activity of a PI3-K. The kinase reaction is performed in a microtitre plate (e.g., a 384 well microtitre plate). The total reaction volume is approximately 20 ul per well. In the first step, each well receives 2 ul of test compound in 20% dimethylsulphoxide resulting in a 2% DMSO final concentration. Next, approximately 14.5 ul of a kinase/PIP2 mixture (diluted in 1× reaction buffer) is added per well for a final concentration of 0.25-0.3 ug/ml kinase and 10 μM PIP2. The plate is sealed and incubated for 15 minutes at room temperature. To start the reaction, 3.5 ul of ATP (diluted in 1× reaction buffer) is added per well for a final concentration of 10 μM ATP. The plate is sealed and incubated for 1 hour at room temperature. The reaction is stopped by adding 5 ul of Stop Solution per well and then 5 ul of Detection Mix is added per well. The plate is sealed, incubated for 1 hour at room temperature, and then read on an appropriate plate reader. Data is analyzed and IC50s are generated using GraphPad Prism 5. […] For PI3K α, β, δ, and γ, the nM concentration of inhibitor to reach IC50 is provided.

[2] = target: p110β/p85α (Homo sapiens (Human), UniProt P42338); experiment: PI 3-Kinase (human) HTRF assay, p110β/p85α
[3] = target: p110γ (Homo sapiens (Human), UniProt P48736); experiment: PI 3-Kinase (human) HTRF assay, p110γ
Method: as §1

[4] = in vitro, read-out: PI3K α IC50
[5] = in vitro, read-out: PI3K β IC50
[6] = in vitro, read-out: PI3K γ IC50

p110γ, sequence (P48736 whole entry): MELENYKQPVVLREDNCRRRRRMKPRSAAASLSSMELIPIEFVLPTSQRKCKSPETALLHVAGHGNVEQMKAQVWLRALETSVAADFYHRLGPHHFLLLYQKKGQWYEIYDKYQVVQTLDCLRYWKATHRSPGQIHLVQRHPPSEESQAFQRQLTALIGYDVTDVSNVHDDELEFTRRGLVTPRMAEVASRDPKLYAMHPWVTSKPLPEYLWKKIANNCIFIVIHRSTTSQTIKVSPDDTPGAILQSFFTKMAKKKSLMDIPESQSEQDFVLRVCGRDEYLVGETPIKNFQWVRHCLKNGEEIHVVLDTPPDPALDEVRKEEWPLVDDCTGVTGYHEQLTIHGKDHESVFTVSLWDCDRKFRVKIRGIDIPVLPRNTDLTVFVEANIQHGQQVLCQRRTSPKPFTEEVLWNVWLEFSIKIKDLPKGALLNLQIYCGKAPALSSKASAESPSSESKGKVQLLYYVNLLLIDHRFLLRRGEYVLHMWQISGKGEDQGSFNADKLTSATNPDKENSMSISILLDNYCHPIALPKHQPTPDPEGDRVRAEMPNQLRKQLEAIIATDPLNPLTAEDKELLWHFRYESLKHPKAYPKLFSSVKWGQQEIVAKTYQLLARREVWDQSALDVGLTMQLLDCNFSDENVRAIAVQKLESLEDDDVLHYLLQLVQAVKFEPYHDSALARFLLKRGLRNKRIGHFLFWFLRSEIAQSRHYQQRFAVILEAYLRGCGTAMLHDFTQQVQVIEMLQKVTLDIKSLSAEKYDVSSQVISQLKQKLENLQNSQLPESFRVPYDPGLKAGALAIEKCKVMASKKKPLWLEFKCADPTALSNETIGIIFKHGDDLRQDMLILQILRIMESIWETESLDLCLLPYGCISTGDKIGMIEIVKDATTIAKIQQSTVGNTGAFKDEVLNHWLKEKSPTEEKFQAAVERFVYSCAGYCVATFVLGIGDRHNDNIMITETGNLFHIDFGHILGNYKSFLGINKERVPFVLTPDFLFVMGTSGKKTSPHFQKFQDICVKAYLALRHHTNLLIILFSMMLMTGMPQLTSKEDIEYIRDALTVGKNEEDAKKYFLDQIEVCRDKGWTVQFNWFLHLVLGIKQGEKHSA
p110β/p85α, sequence (P42338 whole entry): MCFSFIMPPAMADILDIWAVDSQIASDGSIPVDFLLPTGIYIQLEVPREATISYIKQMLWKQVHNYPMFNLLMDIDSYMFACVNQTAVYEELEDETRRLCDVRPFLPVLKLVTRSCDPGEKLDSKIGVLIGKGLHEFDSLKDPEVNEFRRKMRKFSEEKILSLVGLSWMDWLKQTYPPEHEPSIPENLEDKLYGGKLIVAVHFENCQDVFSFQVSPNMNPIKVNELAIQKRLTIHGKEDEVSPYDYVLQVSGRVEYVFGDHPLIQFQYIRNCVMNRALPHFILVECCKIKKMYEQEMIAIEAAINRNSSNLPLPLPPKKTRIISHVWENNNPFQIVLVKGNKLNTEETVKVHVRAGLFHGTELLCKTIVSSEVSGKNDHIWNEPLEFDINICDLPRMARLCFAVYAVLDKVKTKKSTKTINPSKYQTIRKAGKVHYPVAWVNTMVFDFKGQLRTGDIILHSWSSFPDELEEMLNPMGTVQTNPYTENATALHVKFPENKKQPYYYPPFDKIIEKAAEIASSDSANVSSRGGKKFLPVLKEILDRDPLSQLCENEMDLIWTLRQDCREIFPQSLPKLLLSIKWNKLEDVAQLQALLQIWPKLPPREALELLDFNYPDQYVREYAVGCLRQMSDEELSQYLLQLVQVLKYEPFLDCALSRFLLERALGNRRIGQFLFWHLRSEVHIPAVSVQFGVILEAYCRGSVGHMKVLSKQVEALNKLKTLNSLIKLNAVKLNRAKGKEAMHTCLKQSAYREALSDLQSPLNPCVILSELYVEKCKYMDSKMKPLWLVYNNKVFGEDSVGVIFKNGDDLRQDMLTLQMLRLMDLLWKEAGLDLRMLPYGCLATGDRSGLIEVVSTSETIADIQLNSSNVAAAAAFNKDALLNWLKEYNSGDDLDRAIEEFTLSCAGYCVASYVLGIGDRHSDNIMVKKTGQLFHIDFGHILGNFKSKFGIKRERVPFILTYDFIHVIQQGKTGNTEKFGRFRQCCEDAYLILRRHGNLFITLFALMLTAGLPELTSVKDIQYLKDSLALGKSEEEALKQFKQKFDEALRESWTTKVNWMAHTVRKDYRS
p110β/p85α, sequence (P27986 whole entry partner): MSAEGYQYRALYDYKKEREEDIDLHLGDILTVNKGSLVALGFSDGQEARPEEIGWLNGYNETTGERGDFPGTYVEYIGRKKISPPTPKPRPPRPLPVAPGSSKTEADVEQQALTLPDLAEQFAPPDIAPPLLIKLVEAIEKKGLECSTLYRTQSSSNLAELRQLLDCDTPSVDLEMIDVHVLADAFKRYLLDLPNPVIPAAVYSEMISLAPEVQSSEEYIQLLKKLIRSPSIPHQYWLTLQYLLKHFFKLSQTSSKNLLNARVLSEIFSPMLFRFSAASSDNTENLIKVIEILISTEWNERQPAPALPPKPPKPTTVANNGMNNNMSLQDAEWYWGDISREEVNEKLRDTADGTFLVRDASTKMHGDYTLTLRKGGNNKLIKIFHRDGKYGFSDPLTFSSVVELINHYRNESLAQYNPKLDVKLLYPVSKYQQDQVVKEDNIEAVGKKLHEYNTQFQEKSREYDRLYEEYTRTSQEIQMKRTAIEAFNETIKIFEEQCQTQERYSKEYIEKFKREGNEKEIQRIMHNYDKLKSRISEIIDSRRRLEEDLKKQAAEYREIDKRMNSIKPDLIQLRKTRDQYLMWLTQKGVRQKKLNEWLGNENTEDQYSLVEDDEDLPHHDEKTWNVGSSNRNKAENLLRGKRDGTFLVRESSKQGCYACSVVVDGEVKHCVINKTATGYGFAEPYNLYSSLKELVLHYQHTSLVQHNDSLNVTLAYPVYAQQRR
p110α/p85α, sequence (P42336 whole entry): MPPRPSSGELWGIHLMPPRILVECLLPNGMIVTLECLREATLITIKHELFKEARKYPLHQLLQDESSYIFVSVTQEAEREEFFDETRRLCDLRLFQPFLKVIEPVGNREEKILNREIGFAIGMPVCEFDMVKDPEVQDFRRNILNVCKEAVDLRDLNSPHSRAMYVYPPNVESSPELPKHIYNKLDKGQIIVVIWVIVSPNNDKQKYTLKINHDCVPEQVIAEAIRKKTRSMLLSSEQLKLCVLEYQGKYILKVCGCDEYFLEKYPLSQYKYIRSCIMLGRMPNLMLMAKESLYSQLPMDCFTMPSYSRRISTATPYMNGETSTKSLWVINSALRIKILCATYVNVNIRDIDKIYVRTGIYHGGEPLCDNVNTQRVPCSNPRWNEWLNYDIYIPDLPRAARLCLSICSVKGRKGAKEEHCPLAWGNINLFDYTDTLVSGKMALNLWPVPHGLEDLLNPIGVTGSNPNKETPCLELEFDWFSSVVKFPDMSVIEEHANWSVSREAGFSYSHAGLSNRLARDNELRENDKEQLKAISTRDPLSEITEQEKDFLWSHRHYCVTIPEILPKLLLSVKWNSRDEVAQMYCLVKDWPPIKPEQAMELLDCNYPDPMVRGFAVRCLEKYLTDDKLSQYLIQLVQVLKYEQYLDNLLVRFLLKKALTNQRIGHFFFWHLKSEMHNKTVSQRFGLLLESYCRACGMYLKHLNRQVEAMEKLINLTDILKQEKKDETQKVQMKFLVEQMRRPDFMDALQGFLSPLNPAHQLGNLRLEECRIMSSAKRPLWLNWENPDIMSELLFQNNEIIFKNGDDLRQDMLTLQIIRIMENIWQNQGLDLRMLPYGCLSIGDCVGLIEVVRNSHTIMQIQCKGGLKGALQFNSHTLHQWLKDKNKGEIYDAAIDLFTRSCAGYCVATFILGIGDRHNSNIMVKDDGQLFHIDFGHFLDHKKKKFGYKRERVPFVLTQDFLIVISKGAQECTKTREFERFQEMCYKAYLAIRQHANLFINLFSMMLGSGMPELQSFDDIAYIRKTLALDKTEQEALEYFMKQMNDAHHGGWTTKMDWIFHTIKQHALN
p110α/p85α, sequence (P27986 whole entry partner): as the sequence (P27986 whole entry partner) above

SMILES: Nc1nc2cc(-c3ccc4ncc(C(=O)N(CCO)CCO)n4c3)ccc2o1 [compound 316]
- IC50 [1, 4]: < 1 µM
- IC50 [2, 5]: < 10 µM
- IC50 [3, 6]: < 10 µM

SMILES: C[C@H]1CN(c2cnc3cccc(-c4ccc5nc(N)oc5c4)c3n2)CCN1 [compound 343]
- IC50 [2, 5]: < 10 µM

SMILES: Nc1nc2cc(-c3ccn4ncc(C(=O)N5CCCC5)c4c3)ccc2o1 [compound 346]
- IC50 [1, 4]: < 0.1 µM
- IC50 [2, 5]: < 10 µM
- IC50 [3, 6]: < 1 µM

SMILES: Nc1nc2cc(-c3ccn4ncc(C(=O)N5CCOCC5)c4c3)ccc2o1 [compound 347]
- IC50 [1, 4]: < 1 µM
- IC50 [2, 5]: < 10 µM
- IC50 [3, 6]: < 1 µM

SMILES: Cc1cc2oc(N)nc2cc1-c1ccc2ncc(N3CCN[C@@H](C)C3)nc2c1 [compound 351]
- IC50 [1, 4]: < 10 µM
- IC50 [2, 5]: < 1 µM

SMILES: Cc1cc(-c2ccc3ncc(C(=O)N4CCOCC4)n3c2)cc2nc(N)oc12 [compound 364]
- IC50 [1, 4]: < 1 µM
- IC50 [2, 5]: < 10 µM
- IC50 [3, 6]: < 1 µM

SMILES: CN(C)C1CN(c2cnc3ccc(-c4ccc5oc(N)nc5c4)cc3n2)C1 [compound 366]
- IC50 [1, 4]: < 0.1 µM
- IC50 [2, 5]: < 10 µM
- IC50 [3, 6]: < 10 µM

SMILES: Nc1nc2cc(-c3ccc4ncc(N5CC(N6CCOCC6)C5)nc4c3)c(Cl)cc2o1 [compound 371]
- IC50 [1, 4]: < 1 µM
- IC50 [2, 5]: < 10 µM

SMILES: CN1CCN(C(=O)c2cnn3ccc(-c4ccc5oc(N)nc5c4)cc23)CC1 [compound 380]
- IC50 [1, 4]: < 1 µM
- IC50 [2, 5]: < 10 µM
- IC50 [3, 6]: < 10 µM

SMILES: CN1CCC(c2cnc3ccc(-c4ccc5oc(N)nc5c4)cc3n2)CC1 [compound 385]
- IC50 [1, 4]: < 0.1 µM
- IC50 [2, 5]: < 10 µM

SMILES: COCCN1CCN(c2cnc3ccc(-c4ccc5oc(N)nc5c4)cc3n2)CC1 [compound 387]
- IC50 [1, 4]: < 0.1 µM
- IC50 [2, 5]: < 1 µM
- IC50 [3, 6]: < 1 µM

SMILES: Nc1nc2cc(-c3ccc4ncc(N5CCNCC5=O)nc4c3)ccc2o1 [compound 389]
- IC50 [1, 4]: < 1 µM
- IC50 [3, 6]: < 10 µM

SMILES: CN1CCN(c2cnc3ccc(-c4ccc5oc(N)nc5c4)cc3n2)C(=O)C1 [compound 390]
- IC50 [1, 4]: < 1 µM
- IC50 [3, 6]: < 10 µM

SMILES: Nc1nc2cc(-c3ccc4ncc(N5CCN(CC(F)(F)F)CC5)nc4c3)ccc2o1 [compound 395]
- IC50 [1, 4]: < 0.1 µM
- IC50 [3, 6]: < 0.1 µM

SMILES: C[C@H]1CN(c2cnc3ccc(-c4ccc5oc(N)nc5c4)cc3c2)CCN1 [compound 396]
- IC50 [1, 4]: < 0.1 µM
- IC50 [2, 5]: < 0.1 µM
- IC50 [3, 6]: < 10 µM

SMILES: Nc1nc2cc(-c3ccc4ncc(C(=O)N5CCOCC5)n4c3)cnc2o1 [compound 400]
- IC50 ([1]; read-out: PI3K α In Vitro IC50): < 0.1 µM
- IC50 ([2]; read-out: PI3K β In Vitro IC50): < 10 µM
- IC50 ([3]; read-out: PI3K γ In Vitro IC50): < 10 µM

SMILES: CNc1nc2cc(-c3ccc4ncc(C(=O)N5CCOCC5)n4c3)ccc2o1 [compound 406]
- IC50 ([1]; read-out: PI3K α In Vitro IC50): < 10 µM
- IC50 ([2]; read-out: PI3K β In Vitro IC50): < 10 µM

SMILES: O=C(c1cnc2ccc(-c3ccc4oc(Nc5ccccc5)nc4c3)cn12)N1CCOCC1 [compound 407]
- IC50 ([2]; read-out: PI3K β In Vitro IC50): < 10 µM

SMILES: Nc1nc2cc(-c3ccc4c(N)n[nH]c4c3)ccc2o1 [compound 428]
- IC50 ([1]; read-out: PI3K α In Vitro IC50): < 10 µM
- IC50 ([2]; read-out: PI3K β In Vitro IC50): < 10 µM
- IC50 ([3]; read-out: PI3K γ In Vitro IC50): < 1 µM

SMILES: Cc1cc(-c2ccc3oc(N)nc3c2)cn2c(C(=O)N3CCOCC3)cnc12 [compound 448]
- IC50 ([1]; read-out: PI3K α In Vitro IC50): < 1 µM
- IC50 ([3]; read-out: PI3K γ In Vitro IC50): < 10 µM

SMILES: O=C(c1cnc2ccc(-c3cccc(NS(=O)(=O)c4ccccc4)c3)cn12)N1CCOCC1 [compound 453]
- IC50 ([1]; read-out: PI3K α In Vitro IC50): < 10 µM
- IC50 ([3]; read-out: PI3K γ In Vitro IC50): < 10 µM

SMILES: COc1ccc(-c2ccc3ncc(C(=O)N4CCOCC4)n3c2)cc1NS(=O)(=O)c1ccccc1 [compound 455]
- IC50 ([1]; read-out: PI3K α In Vitro IC50): < 10 µM
- IC50 ([3]; read-out: PI3K γ In Vitro IC50): < 10 µM

SMILES: O=C(c1cnc2ccc(-c3ccc(Cl)c(NS(=O)(=O)c4ccccc4)c3)cn12)N1CCOCC1 [compound 459]
- IC50 ([1]; read-out: PI3K α In Vitro IC50): < 1 µM
- IC50 ([3]; read-out: PI3K γ In Vitro IC50): < 1 µM

SMILES: Nc1nc2cc(-c3ccc4ncc(C(=O)N5CC[C@H](N6CCOCC6)C5)n4c3)ccc2o1 [compound 465]
- IC50 ([1]; read-out: PI3K α In Vitro IC50): < 0.1 µM
- IC50 ([3]; read-out: PI3K γ In Vitro IC50): < 1 µM

SMILES: Nc1nc2cc(-c3ccc4ncc(C(=O)N5CC[C@H](F)C5)n4c3)ccc2o1 [compound 476]
- IC50 ([1]; read-out: PI3K α In Vitro IC50): < 0.1 µM
- IC50 ([3]; read-out: PI3K γ In Vitro IC50): < 0.1 µM

SMILES: CNc1noc2cc(-c3ccc4ncc(C(=O)N5CCOCC5)n4c3)ccc12 [compound 486]
- IC50 ([1]; read-out: PI3K α In Vitro IC50): < 10 µM
- IC50 ([3]; read-out: PI3K γ In Vitro IC50): < 10 µM

SMILES: Nc1nc2cc(-c3ccc4ncc(C(=O)N5CCC(N6CC(F)(F)C6)C5)n4c3)ccc2o1 (stereo not drawn) [compound 498]
- IC50 ([1]; read-out: PI3K α In Vitro IC50): < 1 µM
- IC50 ([3]; read-out: PI3K γ In Vitro IC50): < 10 µM

SMILES: Nc1nc2cc(-c3ccc4ncc(C(=O)N5CCC6(C5)OCCO6)n4c3)ccc2o1 [compound 499]
- IC50 ([1]; read-out: PI3K α In Vitro IC50): < 1 µM
- IC50 ([3]; read-out: PI3K γ In Vitro IC50): < 10 µM

SMILES: Nc1nc2cc(-c3ccc4ncc(C(=O)N5CCC(F)(F)CC5)n4c3)ccc2o1 [compound 501]
- IC50 ([1]; read-out: PI3K α In Vitro IC50): < 1 µM
- IC50 ([3]; read-out: PI3K γ In Vitro IC50): < 10 µM

SMILES: Nc1nc2cc(-c3ccc4ncc(C(=O)N5CCC(F)CC5)n4c3)ccc2o1 [compound 503]
- IC50 ([1]; read-out: PI3K α In Vitro IC50): < 1 µM
- IC50 ([3]; read-out: PI3K γ In Vitro IC50): < 0.1 µM

SMILES: CC1(C)CN(C(=O)c2cnc3ccc(-c4ccc5oc(N)nc5c4)cn23)CCO1 [compound 513]
- IC50 ([1]; read-out: PI3K α In Vitro IC50): < 1 µM
- IC50 ([3]; read-out: PI3K γ In Vitro IC50): < 10 µM

SMILES: CN1CC(n2cnc3ccc(-c4ccc5oc(N)nc5c4)cc3c2=O)C1 [compound 528]
- IC50 ([1]; read-out: PI3K α In Vitro IC50): < 1 µM
- IC50 ([2]; read-out: PI3K β In Vitro IC50): < 10 µM
